From ChEMBL document CHEMBL1126337, “Cholecystokinin analogues: The ergopeptine alkaloids as models of the active conformation of CCK” (Bioorg Med Chem Lett, 1992) come the findings set out here.

Peptide text beside a SMILES is read from it. * marks the point of attachment. NHPhenethyl = c1ccc(CCN*)cc1; Boc = CC(C)(C)OC(=O)* Bounds are passed on as bounds.

Assay [1] addresses T1, Cholecystokinin receptor type A (Mus musculus, UniProt O08786).
T1 sequence (O08786 whole entry): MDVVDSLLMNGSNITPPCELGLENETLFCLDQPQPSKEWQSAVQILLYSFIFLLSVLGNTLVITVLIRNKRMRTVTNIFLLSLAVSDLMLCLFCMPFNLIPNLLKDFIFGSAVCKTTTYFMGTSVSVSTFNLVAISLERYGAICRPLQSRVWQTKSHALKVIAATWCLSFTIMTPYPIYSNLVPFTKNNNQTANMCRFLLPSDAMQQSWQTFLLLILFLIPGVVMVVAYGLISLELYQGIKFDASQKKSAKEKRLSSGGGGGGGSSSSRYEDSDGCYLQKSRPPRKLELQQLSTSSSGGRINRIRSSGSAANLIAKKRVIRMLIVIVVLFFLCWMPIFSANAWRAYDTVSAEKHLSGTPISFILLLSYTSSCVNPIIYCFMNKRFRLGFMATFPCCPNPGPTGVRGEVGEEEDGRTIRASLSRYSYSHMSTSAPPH
The assay is described as follows: Concentration of compound required to inhibit binding of [125I]J-BH-CCK-8 radioligand to CCKA in mouse pancreatic membranes. The assay is classed as cell membranes.

In assay [2] the target is T2, Gastrin/cholecystokinin type B receptor (Mus musculus, UniProt P56481).
T2 sequence (P56481 whole entry): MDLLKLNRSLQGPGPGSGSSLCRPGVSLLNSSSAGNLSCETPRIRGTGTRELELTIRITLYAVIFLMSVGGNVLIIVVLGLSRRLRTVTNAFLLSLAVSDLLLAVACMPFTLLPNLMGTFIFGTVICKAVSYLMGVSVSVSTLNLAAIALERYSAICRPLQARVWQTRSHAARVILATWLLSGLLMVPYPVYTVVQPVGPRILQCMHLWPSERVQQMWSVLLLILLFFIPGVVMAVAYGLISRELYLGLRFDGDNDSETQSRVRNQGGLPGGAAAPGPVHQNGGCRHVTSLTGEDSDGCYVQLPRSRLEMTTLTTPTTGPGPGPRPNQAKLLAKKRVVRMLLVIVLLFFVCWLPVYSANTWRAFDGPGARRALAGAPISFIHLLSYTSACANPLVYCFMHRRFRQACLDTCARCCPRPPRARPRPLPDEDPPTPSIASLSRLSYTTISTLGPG
As to the kind of experiment: Concentration of compound required to inhibit binding of [125I]J-BH-CCK-8 radioligand to CCKB in mouse fore brain membranes. Format: cell membranes, Membrane.

With `CC(C)C[C@H](NC(=O)[C@H](Cc1c[nH]c2ccccc12)NC(=O)OC(C)(C)C)C(=O)N[C@@H](CC(=O)O)C(=O)NCCc1ccccc1` (Boc-Trp-Leu-Asp-NHPhenethyl), the IC50 stood at 3.5 µM in assay [1] and 0.35 µM in assay [2].
Taken in the same sequence, the figures for `C[C@H](NC(=O)C1C=C2c3cccc4[nH]cc(c34)CC2N(C)C1)C(=O)NCCc1ccccc1` (stereo not given in full) were 12 µM and over 80 µM.
Taken in the same sequence, the figures for `CN1C[C@H](C(=O)N[C@]2(C)O[C@@]3(O)[C@@H]4CCCN4C(=O)[C@H](Cc4ccccc4)N3C2=O)C=C2c3cccc4[nH]cc(c34)C[C@H]21` [ERGOTAMINE] were 34 µM and 17 µM.
`CC(C)C[C@H]1C(=O)N2CCC[C@H]2[C@]2(O)O[C@](NC(=O)[C@@H]3C=C4c5cccc6[nH]cc(c56)C[C@H]4N(C)C3)(C(C)C)C(=O)N12` [ERGOCRYPTINE]: the IC50 in assay [1] and in assay [2] was over 80 µM each time.
With `CN1C[C@H](C(=O)N[C@]2(C)O[C@@]3(O)[C@@H]4CCCN4C(=O)[C@H](Cc4ccccc4)N3C2=O)C[C@@H]2c3cccc4[nH]cc(c34)C[C@H]21` [DIHYDROERGOTAMINE], the IC50 is over 80 µM in assay [1] and 23 µM in assay [2].
